Experimental data: EP0640606B1, “Thienopyrimidine derivatives, their production and use” (TAKEDA CHEMICAL INDUSTRIES, LTD., priority 1993, dated 1995)

Columns and labels:
Endothelin-A Receptor [1] = biological target: T1, Endothelin-A Receptor (Homo sapiens, UniProt P25101); experiment: Endothelin Assay Test, [125I]endothelin-1 binding to insect cell (Sf9) membrane fraction expressing human ETA receptor; settings: human ETA receptor expressed, 25°C for 60 minutes, PMB = 50%, read-out: IC 50 Endothelin-A Receptor (human)
T1 construct: expressed in transfected cells; host or cells: Sf9 insect cells (membrane fraction)
T1 sequence (P25101 21-427): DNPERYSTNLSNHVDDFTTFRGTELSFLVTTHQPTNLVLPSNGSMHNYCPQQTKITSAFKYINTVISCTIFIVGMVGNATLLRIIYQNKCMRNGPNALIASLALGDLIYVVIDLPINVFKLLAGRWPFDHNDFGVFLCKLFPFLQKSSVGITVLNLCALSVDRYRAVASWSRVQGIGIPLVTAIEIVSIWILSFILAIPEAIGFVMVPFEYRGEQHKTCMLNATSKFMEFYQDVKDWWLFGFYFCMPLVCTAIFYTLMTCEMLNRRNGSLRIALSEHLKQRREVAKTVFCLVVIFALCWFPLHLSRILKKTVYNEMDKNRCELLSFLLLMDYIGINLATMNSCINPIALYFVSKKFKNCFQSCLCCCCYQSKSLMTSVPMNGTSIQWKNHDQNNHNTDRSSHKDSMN
Method: (§1) Endothelin (ET) receptors were prepared as follows. An insect cell (Sf9) membrane fraction wherein human endothelin-A (ETA) was expressed and that wherein endothelin-B (ETB) was expressed were diluted with an assay buffer [comprising 20 mM of Tris-HCl, 2 mM of EGTA (ethylene glycol bis(2-aminoethyl ether)tetraacetic acid), 5 mM of magnesium acetate, 0.1% of BSA (bovine serum albumin), 0.03% of NaN3, 0.5 mM of PMSF (phenylmethylsulfonyl fluoride), 20 micrograms/ml of leupeptin, 4 micrograms/ml of E-64 (manufactured by the Peptide Institute, Japan) and 1 microgram/ml of pepstatin; pH 7.2] to make 1.4 micrograms/ml and 0.7 microgram/ml for the insect cell (Sf 9) membrane fraction wherein a human ETA receptor was expressed and for that wherein a human ETB receptor was expressed, respectively. Each 100 microliters of them were taken out and 2 microliters of 5nM [^125I]endothelin-1 was added thereto. A dimethyl sulfoxide solution (3 microliters) of the sample was added thereto and the mixture was incubated at 25°C for 60 minutes. Further, in order to measure the maximum binding (B0) and the nonspecific binding (NSB), a lot to which […] or […] of 10^-5M of endothelin-1 in dimethyl sulfoxide was added was incubated as well. An assay buffer suspended with 0.05% CHAPS (3-[(3-cholamidopropyl)di-methylammonio]-1-propanesulfonate, 1.5 ml) was added and the mixture was filtered through a GF/F glass fiber filter (trade name of Whatman, England) followed by washing with 1.5 ml of the same buffer.
(§2) The radioactivity of the filter was counted by a γ -counter and determined PMB by the same way described in Test Example 1. The value wherein PMB = 50% was calculated and expressed as an IC50.

Endothelin-B Receptor [2] = biological target: T2, Endothelin-B Receptor (Homo sapiens, UniProt P24530); experiment: Endothelin Assay Test, [125I]endothelin-1 binding to insect cell (Sf9) membrane fraction expressing human ETB receptor; settings: human ETB receptor expressed, 25°C for 60 minutes, PMB = 50%, read-out: IC 50 Endothelin-B Receptor (human)
T2 construct: expressed in transfected cells; host or cells: Sf9 insect cells (membrane fraction)
T2 sequence (P24530 27-442): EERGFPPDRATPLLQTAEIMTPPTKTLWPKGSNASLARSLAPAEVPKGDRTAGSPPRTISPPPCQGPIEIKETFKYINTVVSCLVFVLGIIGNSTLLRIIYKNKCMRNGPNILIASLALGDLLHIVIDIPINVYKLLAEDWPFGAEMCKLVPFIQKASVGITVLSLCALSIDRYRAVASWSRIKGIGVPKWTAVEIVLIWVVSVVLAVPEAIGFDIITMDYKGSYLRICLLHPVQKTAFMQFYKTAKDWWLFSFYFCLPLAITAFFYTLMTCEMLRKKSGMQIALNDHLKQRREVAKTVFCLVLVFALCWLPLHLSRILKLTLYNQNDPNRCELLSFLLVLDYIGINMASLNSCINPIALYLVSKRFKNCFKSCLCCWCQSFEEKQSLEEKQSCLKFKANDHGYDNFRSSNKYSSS
Method: as §1, §2

Endothelin-A Receptor [3] = biological target: T3, Endothelin-A Receptor (Sus scrofa, UniProt Q29010); experiment: Endothelin Receptor Assay, [125I]endothelin-1 binding to pig ventricular muscle membrane fraction; settings: 25°C for 60 minutes, concentration wherein PMB was 50%, read-out: IC50 Endothelin-A Receptor (pigs)
T3 construct: A pig ventricular muscle membrane fraction for an endothelin-A receptor assay; from tissue; host or cells: pig ventricular muscle membrane fraction
T3 sequence (Q29010 21-427): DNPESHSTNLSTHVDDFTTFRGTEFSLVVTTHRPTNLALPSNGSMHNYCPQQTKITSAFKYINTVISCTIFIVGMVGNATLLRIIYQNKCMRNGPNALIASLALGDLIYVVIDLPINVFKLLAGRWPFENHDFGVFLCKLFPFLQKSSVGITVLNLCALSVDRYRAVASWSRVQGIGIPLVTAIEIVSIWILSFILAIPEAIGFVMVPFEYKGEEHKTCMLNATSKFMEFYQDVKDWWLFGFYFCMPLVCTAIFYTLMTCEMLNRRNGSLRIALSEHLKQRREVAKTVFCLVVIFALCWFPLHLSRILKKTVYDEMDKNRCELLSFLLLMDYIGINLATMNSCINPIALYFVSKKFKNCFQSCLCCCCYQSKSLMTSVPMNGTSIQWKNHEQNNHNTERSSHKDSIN
Method: (§3) A pig ventricular muscle membrane fraction for an endothelin-A receptor assay and a bovine cerebral membrane fraction for an endothelin-B receptor assay were diluted with an assay buffer [comprising 20 mM of Tris-HCl, 2 mM of EGTA (ethylene glycol bis(2-aminoethyl ether)tetraacetic acid), 5 mM of magnesium acetate, 0.1% of BSA (bovine serum albumin), 0.03% of NaN3, 0.5 mM of PMSF (phenylmethylsulfonyl fluoride), 20 micrograms/ml of leupeptin, 4 micrograms/ml of E-64 (manufactured by the Peptide Institute, Japan) and 1 microgram/ml of pepstatin; pH 7.2] to 12 µg/ml and 180 µg/ml, respectively.
(§4) To each 100 microliter of them was added 5 nM [^125I] endothelin-1 (2 microliters). A solution (3 microliters) of the sample was added and the mixture was incubated at 25°C for 60 minutes. In order to measure the maximum binding (B0) and the nonspecific bonding (NSB), a lot to which dimethyl sulfoxide (3 microliters) or a solution (3 microliters) of 10^-5M of endothelin in dimethyl sulfoxide was added was incubated as well. […] The radioactivity of the filter was counted by a γ -counter and a calculation was conducted in accordance with the following formula (1) whereby a percent maximum binding (hereinafter, referred to as PMB) was determined. […]

Endothelin-B Receptor [4] = biological target: T4, Endothelin-B Receptor (Bos taurus, UniProt P28088); experiment: Endothelin Receptor Assay, [125I]endothelin-1 binding to bovine cerebral membrane fraction; settings: 25°C for 60 minutes, concentration wherein PMB was 50%
T4 construct: a bovine cerebral membrane fraction for an endothelin-B receptor assay; from tissue; host or cells: bovine cerebral membrane fraction
T4 sequence (P28088 27-441): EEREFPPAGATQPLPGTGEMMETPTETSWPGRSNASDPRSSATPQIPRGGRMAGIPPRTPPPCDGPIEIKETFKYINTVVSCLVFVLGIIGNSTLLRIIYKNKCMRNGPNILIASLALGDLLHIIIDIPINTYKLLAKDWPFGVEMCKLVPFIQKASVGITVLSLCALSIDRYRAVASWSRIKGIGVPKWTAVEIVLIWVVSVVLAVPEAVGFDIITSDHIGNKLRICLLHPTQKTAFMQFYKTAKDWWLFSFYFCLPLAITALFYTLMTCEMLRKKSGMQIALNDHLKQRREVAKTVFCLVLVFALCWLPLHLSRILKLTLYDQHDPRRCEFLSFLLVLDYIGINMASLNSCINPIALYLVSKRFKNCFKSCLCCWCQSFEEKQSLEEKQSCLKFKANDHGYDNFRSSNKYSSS
Method: as §3, §4

IC50 (Endothelin-A Receptor [1])	IC50 (Endothelin-B Receptor [2])	IC50 (Endothelin-A Receptor [3])	IC50 (Endothelin-B Receptor [4])	Compound
2600 nM	16000 nM			CSc1ccccc1Cn1c(=O)n(CC(=O)O)c(=O)c2c(C)c(-c3ccc4c(c3)OCO4)sc21 [Compound 156]
1900 nM	12000 nM			COc1ccc(-c2sc3c(c2C)c(=O)n(CC(=O)O)c(=O)n3Cc2ccccc2OC)cc1 [Compound 105]
1800 nM	14000 nM			COc1ccc(-c2sc3c(c2C)c(=O)n(CC(=O)O)c(=O)n3Cc2ccccc2C)cc1 [Compound 111]
2500 nM	33000 nM			COc1ccccc1Cn1c(=O)n(CC(=O)O)c(=O)c2c(C)c(-c3ccc(OCC(N)=O)cc3)sc21 [Compound 143]
2100 nM	2500 nM			CSc1ccccc1Cn1c(=O)n(CC(=O)O)c(=O)c2c(C)c(-c3ccc(-n4cccc4)cc3)sc21 [Compound 173, 2,4(1H,3H)-dioxo-1-(2-methylthiobenzyl)-6-[4-(1-pyrrolyl)phenyl]-5-methylthieno[2,3-d]pyrimidine-3-acetic acid]
85 nM	920 nM			COCOc1ccc(-c2sc3c(c2C)c(=O)n(CC(=O)O)c(=O)n3Cc2ccccc2SC)cc1 [Compound 144, 2,4(1H,3H)-dioxo-5-methyl-6-(4-methoxymethoxyphenyl)-1-(2-methylthiobenzyl)thieno[2,3-d]pyrimidine-3-acetic acid]
240 nM	15000 nM			COc1ccccc1Cn1c(=O)n(CC(=O)O)c(=O)c2c(C)c(-c3ccc(OCSC)cc3)sc21 [Compound 140, 2,4(1H,3H)-dioxo-5-methyl-6-(4-methylthiomethoxyphenyl)-1-(2-methoxybenzyl)thieno[2,3-d]pyrimidine-3-acetic acid]
400 nM	7100 nM			CSc1ccccc1Cn1c(=O)n(CC(=O)O)c(=O)c2c(C)c(-c3ccc(OCC(C)=O)cc3)sc21 [Compound 148, 2,4(1H,3H)-dioxo-5-methyl-1-(2-methylthiobenzyl)-6-[4-(2-oxopropoxy)phenyl]thieno[2,3-d]pyrimidine-3-acetic acid]
250 nM	2600 nM			CCCOc1ccc(-c2sc3c(c2C)c(=O)n(CC(=O)O)c(=O)n3Cc2ccccc2SC)cc1 [Compound 146, 2,4(1H,3H)-dioxo-5-methyl-1-(2-methylthiobenzyl)-6-(4-propoxyphenyl)thieno[2,3-d]pyrimidine-3-acetic acid]
1200 nM	12000 nM			COc1ccccc1Cn1c(=O)n(CC(=O)O)c(=O)c2c(C)c(-c3ccc(OCCO)cc3)sc21 [Compound 130]
66 nM	660 nM			CSCOc1ccc(-c2sc3c(c2C)c(=O)n(CC(=O)O)c(=O)n3Cc2ccccc2SC)cc1 [Compound 145, 2,4(1H,3H)-dioxo-5-methyl-6-(4-methylthiomethoxyphenyl)-1-(2-methylthiobenzyl)thieno[2,3-d]pyrimidine-3-acetic acid]
710 nM	6800 nM			COc1ccc(-c2sc3c(c2C)c(=O)n(CC(=O)O)c(=O)n3Cc2ccccc2SC)cc1 [Compound 115, 2,4(1H,3H)-dioxo-5-methyl-6-(4-methoxyphenyl)-1-(2-methylthiobenzyl)thieno[2,3-d]pyrimidine-3-acetic acid]
2900 nM	26000 nM			COc1ccc(-c2sc3c(c2C)c(=O)n(CC(=O)O)c(=O)n3Cc2cc(OC)ccc2OC)cc1 [Compound 125]
		12000 nM	39000 nM	COc1cccc(Cn2c(=O)n(CC(=O)O)c(=O)c3cc(-c4ccccc4)sc32)c1 [Compound 99]
300 nM	2400 nM			COCOc1ccc(-c2sc3c(c2C)c(=O)n(CC(=O)O)c(=O)n3Cc2ccccc2OC)cc1 [Compound 131, 2,4(1H,3H)-dioxo-5-methyl-6-(4-methoxymethoxyphenyl)-1-(2-methoxybenzyl)thieno[2,3-d]pyrimidine-3-acetic acid]
		1300 nM	7500 nM	COc1ccccc1Cn1c(=O)n(CC(=O)O)c(=O)c2c(C)c(-c3ccccc3)sc21 [Compound 102]
